Laboratory results as given in US20130310374A1, “Substituted Imidazoquinoline Derivatives” (PIRAMAL ENTERPRISES LIMITED`, priority 2010, published 2013).

How the values were obtained:
[1] = system: KCL22; experiment: Cytotoxicity propidium iodide assay, KCL22; type: cell-based; details: Homo sapiens, KCL-22; KCL22 (CML), 48 hours treatment; read-out: IC50 Values in μM, C6f
Procedure: The assay was designed as in the reference, Anticancer Drugs, 2002, 13, 1-8, the disclosure of which is incorporated herein by reference for the teaching of the assay.
Cells from cell lines (ATCC) as mentioned in the table given below were seeded at a density of 3000 cells/well in a white opaque 96-well plate. Following incubation at 37° C./5% CO2 for a period of 18-24 hours, the cells were treated with various concentrations (stock solution was prepared in DMSO and subsequent dilutions were made in media as per ATCC guidelines) of the compounds of the present invention for a period of 48 hours. At the end of treatment, the culture medium was discarded, the cells were washed with 1×PBS and 200 μL of […] propidium iodide was added to each well. […] For analysis, the plates were warmed to RT, allowed to thaw and were read in PoleStar fluorimeter with the fluorescence setting. The percentage of viable cells in the non-treated set of wells was considered to be 100 and the percentage viability following treatment was calculated accordingly. IC50 values were calculated from graphs plotted using these percentages. IC50 values for certain compounds of present invention are depicted in Table 1 and % Inhibition of certain compounds of present invention are depicted in Table 2.

[2] = system: arthritic DBA/1 J mice; experiment: Collagen-induced arthritis; type: in vivo, mouse; details: 1 mg/kg, p.o., twice daily
Procedure: Protocol for Collagen-Induced Arthritis
Induction of Collagen-Induced Arthritis and Treatment with Compound of Example 19
All animal experiments were carried out in accordance with the guidelines of Committee for the Purpose of Control and Supervision of Experiments on Animals (CPCSEA). All animal experiments were approved by Institutional Animal Ethics Committee (IAEC) of Piramal Life Sciences Limited, Mumbai, India. Collagen-induced arthritis was induced in DBA/1 J mice as described in J. Exp. Med., 1985, 162, 637-46. Inbred male DBA/1 J mice (8-10 weeks of age, Jackson Laboratories, Bar Harbor, Me.) were immunized intradermally at the base of the tail with 200 μg type II collagen emulsified in Freund's Complete Adjuvant (FCA) on day 0. On day 17, immunized mice were randomized into different groups based on their body weight. From day 17 onwards, (i) one group of mice started receiving administration of compound of Example 19 (1 mg/kg, p.o., twice daily), (ii) a second group of mice started receiving administration of vehicle (0.5% CMC, p.o., twice daily), and (iii) a third group of mice started receiving administration of Enbrel (3 mg/kg, s.c., once daily). On day 21, all mice were boosted with 200 μg type II collagen emulsified in FCA. The mice (8 per treatment group) were monitored daily (from day 17 onwards) for the development and severity of arthritis using articular index and paw thickness as parameters. Articular index scoring was performed employing the following criteria—Fore limbs (Scale 0-3): 0, no redness or swelling; 1, redness but no swelling; 2, redness and swelling of the paw; 3, redness and severe swelling of the paw. […] Swelling of each of the paws of mice was measured with constant-tension, spring-loaded calipers (Mitutoyo, Aurora, Ill.). […]
Treatment continued daily until day 36 of the study, and the body weight of the animal along with the severity of inflammation for all 4 paws was monitored daily. […]

[3] = system: Human umbilical vein endothelial cells (HUVECs); experiment: VEGF induced tube formation assay; type: cell-based; details: HUVECs on Matrigel, compound 75 nM, 18 hours; FIG. 2
Procedure: Protocol for Tube Formation Assay
Cell Culture: Human umbilical vein endothelial cells (HUVECs) (ATCC) used in passages 2-7. The cells were grown in endothelial medium (Promocell, Germany) supplemented with 20% fetal bovine serum (FBS), 100 units/mL penicillin, 100 μg/mL streptomycin, 3 ng/mL basic fibroblast growth factor, and 5 units/mL heparin at 37° C. under a humidified 95% (v/v) mixture of air and CO2.
Tube Formation Assay: 250 μl of growth factor-reduced Matrigel (BD Biosciences) was pipetted into a 24 well tissue culture plate and polymerized for 30 minutes at 37° C. HUVECs incubated in endothelial media containing 1% FBS for 6 hours were harvested after trypsin treatment and suspended in endothelial media containing 1% FBS. Compounds of present invention (75 nM) were added to the cells for 30 minutes at RT before seeding and plated onto the layer of Matrigel at a density of 2×10^4 cells/well, and followed by the addition of 2 mL of 40 ng/mL VEGF. After 18 hours, the cultures were photographed.
Results: When HUVECs were placed on growth factor-reduced Matrigel in the presence of VEGF, VEGF led to the formation of elongated and robust tube-like structures, which were organized by much larger number of cells compared with the control.

## Cn1c(=O)n(-c2ccc(C(C)(C)C#N)nc2)c2c3cc(-c4cnc(N)c(C(F)(F)F)c4)ccc3ncc21 [Example 3, 2-(5-(8-(6-Amino-5-(trifluoromethyl)pyridin-3-yl)-3-methyl-2-oxo-2,3-dihydro-1H-imidazo[4,5-c]quinolin-1-yl)pyridin-2-yl)-2-methylpropanenitrile]
[1]
  IC50: 2 µM

## COc1ccc(-n2c(=O)n(C)c3cnc4ccc(-c5cnc(N)c(C(F)(F)F)c5)cc4c32)cn1 [Example 19, 8-(6-Amino-5-(trifluoromethyl)pyridin-3-yl)-1-(6-methoxypyridin-3-yl)-3-methyl-1H-imidazo[4,5-c]quinolin-2(3H)-one]
[2]; day 17 to day 36
  Bone erosion and joint space narrowing: distinctly protects against bone erosion and joint space narrowing
  Joint destruction, hyperproliferative pannus formation and infiltration of inflammatory cells: prominently diminishes joint destruction, hyperproliferative pannus formation and infiltration of inflammatory cells
[2]; day 17 to day 36, FIGS. 4a and 4b
  Disease-associated increase in articular index and paw thickness: inhibits disease-associated increase in articular index and paw thickness

## CS(=O)(=O)O.Cn1c(=O)n(-c2ccc(C(C)(C)C#N)nc2)c2c3cc(-c4cnc(N)c(C(F)(F)F)c4)ccc3ncc21 [Example 3a, 8-(6-Amino-5-(trifluoromethyl)pyridin-3-yl)-1-(6-(2-cyanopropan-2-yl)pyridin-3-yl)-3-methyl-2-oxo-2,3-dihydro-1H-imidazo[4,5-c]quinolin-5-ium methanesulfonate]
[3]
  VEGF (40 ng/mL) induced tube formation: effectively abrogated the width and the length of endothelial tubes induced by VEGF
